{"source": "PubChem BioAssay AID1745844", "about": "(Carcinogenic Potency Database (CPDB), 2022)", "tested_on": "rodent lifetime carcinogenesis bioassay, tumor incidence TD50", "experiment": "chronic cancer bioassays in animals – CPDB, compiled studies (AID 1745844)", "settings": "mouse, study length 104 weeks", "note": "Activity calls are given as the source filed them. The rule behind the calls is not given here.", "data": [{"smiles": "ClCCl", "values": [{"measurement": "TD50", "setting": "strain B6C3F1, females, inhaled, site: any site (literature study), lesion: several types, types named in the paper, dosed 102 weeks", "value": 1020, "unit": "mg/kg/day"}, {"measurement": "TD50", "setting": "strain B6C3F1, females, inhaled, site: liver + lung, lesion: hepatocellular adenoma + hepatocellular carcinoma + alveolar/bronchiolar adenoma + alveolar/bronchiolar carcinoma, dosed 102 weeks", "value": 817, "unit": "mg/kg/day"}, {"measurement": "TD50", "setting": "strain B6C3F1, females, inhaled, site: liver, lesion: hepatocellular adenoma + hepatocellular carcinoma + neoplastic nodule, dosed 102 weeks", "value": 1430, "unit": "mg/kg/day"}, {"measurement": "TD50", "setting": "strain B6C3F1, females, inhaled, site: liver, lesion: hepatocellular adenoma + hepatocellular carcinoma, dosed 102 weeks", "value": 1430, "unit": "mg/kg/day"}, {"measurement": "TD50", "setting": "strain B6C3F1, females, inhaled, site: liver, lesion: hepatocellular adenoma, dosed 26 weeks", "value": 2570, "unit": "mg/kg/day"}, {"measurement": "TD50", "setting": "strain B6C3F1, females, inhaled, site: liver, lesion: hepatocellular adenoma, dosed 52 weeks", "value": 6250, "unit": "mg/kg/day"}, {"measurement": "TD50", "setting": "strain B6C3F1, females, inhaled, site: liver, lesion: hepatocellular adenoma, dosed 78 weeks", "value": 2780, "unit": "mg/kg/day"}, {"measurement": "TD50", "setting": "strain B6C3F1, females, inhaled, site: liver, lesion: hepatocellular adenoma, dosed 102 weeks", "value": 3170, "unit": "mg/kg/day"}, {"measurement": "TD50", "setting": "strain B6C3F1, females, inhaled, site: liver, lesion: hepatocellular adenoma, dosed 104 weeks", "value": 4860, "unit": "mg/kg/day"}, {"measurement": "TD50", "setting": "strain B6C3F1, females, inhaled, site: liver, lesion: hepatocellular carcinoma, dosed 26 weeks", "value": 6790, "unit": "mg/kg/day"}, {"measurement": "TD50", "setting": "strain B6C3F1, females, inhaled, site: liver, lesion: hepatocellular carcinoma, dosed 52 weeks", "value": 4960, "unit": "mg/kg/day"}, {"measurement": "TD50", "setting": "strain B6C3F1, females, inhaled, site: liver, lesion: hepatocellular carcinoma, dosed 78 weeks", "value": 4020, "unit": "mg/kg/day"}, {"measurement": "TD50", "setting": "strain B6C3F1, females, inhaled, site: liver, lesion: hepatocellular carcinoma, dosed 102 weeks", "value": 1850, "unit": "mg/kg/day"}, {"measurement": "TD50", "setting": "strain B6C3F1, females, inhaled, site: liver, lesion: hepatocellular carcinoma, dosed 104 weeks", "value": 2750, "unit": "mg/kg/day"}, {"measurement": "TD50", "setting": "strain B6C3F1, females, inhaled, site: liver, lesion: several types, types named in the paper, dosed 26 weeks", "value": 1840, "unit": "mg/kg/day"}, {"measurement": "TD50", "setting": "strain B6C3F1, females, inhaled, site: liver, lesion: several types, types named in the paper, dosed 52 weeks", "value": 2850, "unit": "mg/kg/day"}, {"measurement": "TD50", "setting": "strain B6C3F1, females, inhaled, site: liver, lesion: several types, types named in the paper, dosed 78 weeks", "value": 1730, "unit": "mg/kg/day"}, {"measurement": "TD50", "setting": "strain B6C3F1, females, inhaled, site: liver, lesion: several types, types named in the paper, dosed 104 weeks", "value": 1740, "unit": "mg/kg/day"}, {"measurement": "TD50", "setting": "strain B6C3F1, females, inhaled, site: lung, lesion: adenoma, dosed 26 weeks", "value": 3400, "unit": "mg/kg/day"}, {"measurement": "TD50", "setting": "strain B6C3F1, females, inhaled, site: lung, lesion: adenoma, dosed 52 weeks", "value": 3810, "unit": "mg/kg/day"}, {"measurement": "TD50", "setting": "strain B6C3F1, females, inhaled, site: lung, lesion: adenoma, dosed 78 weeks", "value": 3590, "unit": "mg/kg/day"}, {"measurement": "TD50", "setting": "strain B6C3F1, females, inhaled, site: lung, lesion: alveolar/bronchiolar adenoma + alveolar/bronchiolar carcinoma, dosed 102 weeks", "value": 917, "unit": "mg/kg/day"}, {"measurement": "TD50", "setting": "strain B6C3F1, females, inhaled, site: lung, lesion: alveolar/bronchiolar adenoma, dosed 102 weeks", "value": 1420, "unit": "mg/kg/day"}, {"measurement": "TD50", "setting": "strain B6C3F1, females, inhaled, site: lung, lesion: alveolar/bronchiolar adenoma, dosed 104 weeks", "value": 5020, "unit": "mg/kg/day"}, {"measurement": "TD50", "setting": "strain B6C3F1, females, inhaled, site: lung, lesion: alveolar/bronchiolar carcinoma, dosed 102 weeks", "value": 1690, "unit": "mg/kg/day"}, {"measurement": "TD50", "setting": "strain B6C3F1, females, inhaled, site: lung, lesion: alveolar/bronchiolar carcinoma, dosed 104 weeks", "value": 2670, "unit": "mg/kg/day"}, {"measurement": "TD50", "setting": "strain B6C3F1, females, inhaled, site: lung, lesion: carcinoma, dosed 26 weeks", "value": 1650, "unit": "mg/kg/day"}, {"measurement": "TD50", "setting": "strain B6C3F1, females, inhaled, site: lung, lesion: carcinoma, dosed 52 weeks", "value": 952, "unit": "mg/kg/day"}, {"measurement": "TD50", "setting": "strain B6C3F1, females, inhaled, site: lung, lesion: carcinoma, dosed 78 weeks", "value": 2830, "unit": "mg/kg/day"}, {"measurement": "TD50", "setting": "strain B6C3F1, females, inhaled, site: lung, lesion: several types, types named in the paper, dosed 26 weeks", "value": 1280, "unit": "mg/kg/day"}, {"measurement": "TD50", "setting": "strain B6C3F1, females, inhaled, site: lung, lesion: several types, types named in the paper, dosed 52 weeks", "value": 804, "unit": "mg/kg/day"}, {"measurement": "TD50", "setting": "strain B6C3F1, females, inhaled, site: lung, lesion: several types, types named in the paper, dosed 78 weeks", "value": 1520, "unit": "mg/kg/day"}, {"measurement": "TD50", "setting": "strain B6C3F1, females, inhaled, site: lung, lesion: several types, types named in the paper, dosed 104 weeks", "value": 1650, "unit": "mg/kg/day"}, {"measurement": "TD50", "setting": "strain B6C3F1, females, inhaled, site: thyroid gland, lesion: follicular-cell adenoma, dosed 102 weeks", "value": 15800, "unit": "mg/kg/day"}, {"measurement": "TD50", "setting": "strain B6C3F1, males, in drinking water, site: liver, lesion: hepatocellular adenoma, dosed 104 weeks", "value": "2900 mg/kg/day (inactive)"}, {"measurement": "TD50", "setting": "strain B6C3F1, males, in drinking water, site: liver, lesion: hepatocellular carcinoma, dosed 104 weeks", "value": "2350 mg/kg/day (inactive)"}, {"measurement": "TD50", "setting": "strain B6C3F1, males, in drinking water, site: liver, lesion: several types, types named in the paper, dosed 104 weeks", "value": "1310 mg/kg/day (inactive)"}, {"measurement": "carcinogen call", "setting": "strain B6C3F1, males, in drinking water, site: thyroid gland, lesion: one or several types, types not named, dosed 104 weeks", "value": "negative (inactive)"}, {"measurement": "TD50", "setting": "strain B6C3F1, males, inhaled, site: all sites, lesion: hemangioma + hemangiosarcoma, dosed 102 weeks", "value": 13200, "unit": "mg/kg/day"}, {"measurement": "TD50", "setting": "strain B6C3F1, males, inhaled, site: all sites, lesion: hemangiosarcoma, dosed 102 weeks", "value": 12900, "unit": "mg/kg/day"}, {"measurement": "TD50", "setting": "strain B6C3F1, males, inhaled, site: any site (literature study), lesion: several types, types named in the paper, dosed 102 weeks", "value": 1160, "unit": "mg/kg/day"}, {"measurement": "TD50", "setting": "strain B6C3F1, males, inhaled, site: liver + lung, lesion: hepatocellular adenoma + hepatocellular carcinoma + alveolar/bronchiolar adenoma + alveolar/bronchiolar carcinoma, dosed 102 weeks", "value": 1090, "unit": "mg/kg/day"}, {"measurement": "TD50", "setting": "strain B6C3F1, males, inhaled, site: liver, lesion: hepatocellular adenoma + hepatocellular carcinoma + neoplastic nodule, dosed 102 weeks", "value": 1800, "unit": "mg/kg/day"}, {"measurement": "TD50", "setting": "strain B6C3F1, males, inhaled, site: liver, lesion: hepatocellular adenoma + hepatocellular carcinoma, dosed 102 weeks", "value": 1800, "unit": "mg/kg/day"}, {"measurement": "TD50", "setting": "strain B6C3F1, males, inhaled, site: liver, lesion: hepatocellular adenoma, dosed 102 weeks", "value": 3480, "unit": "mg/kg/day"}, {"measurement": "TD50", "setting": "strain B6C3F1, males, inhaled, site: liver, lesion: hepatocellular carcinoma, dosed 102 weeks", "value": 2690, "unit": "mg/kg/day"}, {"measurement": "TD50", "setting": "strain B6C3F1, males, inhaled, site: lung, lesion: alveolar/bronchiolar adenoma + alveolar/bronchiolar carcinoma, dosed 102 weeks", "value": 920, "unit": "mg/kg/day"}, {"measurement": "TD50", "setting": "strain B6C3F1, males, inhaled, site: lung, lesion: alveolar/bronchiolar adenoma, dosed 102 weeks", "value": 1680, "unit": "mg/kg/day"}, {"measurement": "TD50", "setting": "strain B6C3F1, males, inhaled, site: lung, lesion: alveolar/bronchiolar carcinoma, dosed 102 weeks", "value": 1710, "unit": "mg/kg/day"}, {"measurement": "TD50", "setting": "strain Swiss, females, by gavage, site: lung, lesion: adenoma, dosed 64 weeks", "value": 7050, "unit": "mg/kg/day"}, {"measurement": "TD50", "setting": "strain Swiss, males, by gavage, site: lung, lesion: adenoma, dosed 64 weeks", "value": 916, "unit": "mg/kg/day"}]}]}
